Assay [1] relates to G3BP1 aggregates in cortical neurons. As to the kind of experiment: Endogenous G3BP1 aggregates in Aβ-treated cortical neurons. The note with it: Aβ oligomers plus peptide. It is filed as cell-based, rat. An excerpt: Given that the G3BP1 190-208 peptide prevents degeneration induced by treatment with neurotoxins such as MPP+ and Aβ oligomer and decreases G3BP1 aggregates formed due MPP+ and Aβ treatment.
(A) Size of endogenous G3BP1 aggregates per 100 μm of neurite is shown as indicated bins from midbrain cultures under control conditions and after treatment with MPP+alone or with 190-208 G3BP1 or 168-189 peptides. (B) Size distribution of endogenous G3BP1 aggregates per 100 μm of neurite is shown from cortical neurons treated with 1 μM Aβpeptide or with […] 190-208 G3BP1 or 168-189 control peptide. Non-treated neurons were used as a control. […] (N≥90 over 3 cultures; by two-way ANOVA with Tukey HSD post-hoc).

The subject of assay [2] is TIA1, G3BP1 and TDP43 granules in E12.5 motor neurons. As to the kind of experiment: Stress granule protein granules in neurites of arsenite-treated motor neurons. It is filed as cell-based, mouse. The following applies: sodium arsenite 0.5 mM 30 minutes, then 10 μM peptide; for number of flag-TDP43 granules greater than 2 μm^2 per 100 μm of neurite: WT and ALS mutant flag-TDP43; for number of large TIA1-GFP granules (>2 μm^2) in neurites: WT and mutant TIA1-GFP. The text has this: To further evaluate whether mutant TIA1 and TDP43 protein aggregates are affected by G3BP1 190-208 peptide, the inventors expressed the mutant proteins in embryonic motor neurons and assessed granules formed in neurites with or without arsenite treatment either in the presence of G3BP1 190-208 or control 168-189 peptide.
FIG. 6: Cell permeable G3BP1 190-208 peptide decreases granules formed by endogenous TIA1 and TDP43 and exogenous TDP43 and TIA1 mutants in motor neurons after sodium arsenite exposure. (A) Embryonic motor neurons isolated from E12.5 mouse embryos were exposed to sodium arsenite (0.5 mM) for 30 minutes and then treated with 10 μM 190- 208 or […] peptide. After fixation endogenous TIA1 was visualized by immunostaining. The number of TIA1 granules greater than 2 μm^2 per 100 μm of neurite were measured. (B) E12.5 motor neurons were treated as described in (A) and immunostaining was used to detect endogenous G3BP1 protein. The number of G3BP1 granules greater than 2 μm^2 per 100 μm of neurite were measured. […] (C) E12.5 motor neurons expressing TIA1-GFT or ALS/FTD-associated mutants TIA1-A381T, TIA1-E384K were treated with sodium arsenite (0.5 mM) for 30 minutes followed by treatment with either 10 μM 190-208 G3BP1 or 168-189 control peptide. The number of cells containing TIA1-GFP puncta were measured 2 μm^2 per 100 μm of neurite and results are reported relative to non-treated controls. The number of TIA1-GFP granules in neurites decreased for WT and ALS/FTD mutants after treatment with 190-208 G3BP1 as compared to the 168-189 control peptide treated cells. (I)) E12.5 motor neurons expressing flag-tagged wildtype TDP43 or ALS-associated mutants TDP43-M337V and TDP43-Q331.K were treated with sodium arsenite (0.5 mM) for 30 minutes followed by treatment with either 10 μM 190-208 G3BP1 or 168189 control peptide. Flag-TDP43 was detected by immunostaining using the anti-flag-antibody. The number of flag-TDP43 granules greater than 2 μm^2 were measured per 100 μm of neurite and the results are reported relative to non-treated controls. The number of Flag-TDP43 granules in neurites were decreased after treatment with 190-208 G3BP1 peptide as compared to the 168-189 control peptide in both WT and ALS/FTD mutants expressing cells. ([…] over 3 cultures; by two-way ANOVA with Tukey HSD post-hoc),

In assay [3] the test system is wild-type or ALS/FTD-associated mutant (P362L, A381T, E384K) TIA1-GFP in HEK cells. As to the kind of experiment: TIA1-GFP aggregates in arsenite-treated HEK cells. It is filed as cell-based. The following applies: sodium arsenite 0.5 mM 30 minutes, then 10 μM peptide. An excerpt: The inventors tested whether the G3BP1 190-208 peptide would prevent the aggregation of granules formed by TIA1 and TDP43 mutant proteins associated with ALS and FTD. […] Next, we treated HEK cells expressing wild-type and or ALS/FTD-associated mutants (P362L, A381T, or E384K)TIA1, with arsenite a potent inducer of SG aggregation, in addition to either G3BP1 190-208 peptide or control G3BP1 168-189 peptide.
FIG. 5: Cell permeable G3BP1 190-208 peptide decreases TIA1-GFP puncta formed due to expression of disease causing TIA1 mutants. (A) Representative images of HEK cells transfected with GFP-tagged wild-type or ALS/FTD-associated mutants (P362L, A381T, or E384K) TIA1. Arrows show TIA1-GFP puncta. (B) Quantification of the percentage of cells with TIA1-GFP puncta greater than 2 μm^2 area in transfected cells relative TIA1-WT-GFP expressing cells. Consistent with previous studies, ALS/FTD- associated TIA1 mutants show increased number of TIA1-GFP puncta as compared to WT-TIA1. (C) HEK cells expressing TIA1-GFP or ALS/FTD-associated mutants TIA1-P362L, TIA1-A381T, TIA1-E384K were treated with sodium arsenite (0.5 mM) for 30 minutes followed by treatment with either 10 μM 190-208 G3BP1 or 168-189 control peptide. The number of cells containing TIA1-GFP puncta were measured and results are reported relative to non-treated controls. Number of HEK cells with TIA1-GFP granules both for WT and ALS/FTD mutants decreased after treatment with 10 μM 190-208 G3BP1 as compared to the 168-189 control peptide treated cells. (N≥90 over 3 cultures; by two-way ANOVA with Tukey HSD post-hoc). Scale bar: 20 μm.

[4] abbreviates: listed as 190-208 G3BP1 peptide.

As for “YGNKKNNNQNNN-VVEPEPEPEPEPEPEPVSE [G3BP1 190-208 peptide]”, the “size of endogenous G3BP1 aggregates per 100 μm of neurite” value in assay [1] is “decrease in the size of G3BP1 aggregates”; in assay [1] (setting [4]), “disassembly of G3BP1 granules”. The “number of flag-TDP43 granules greater than 2 μm^2 per 100 μm of neurite” value in assay [2] is listed as “reversed”; in assay [2] (setting [4]) it was “decreased”. Besides, the “number of large TIA1-GFP granules (>2 μm^2) in neurites” value in assay [2] was “decrease in the number of large granules”; in assay [2] (listed as 190-208 G3BP1), “decreased”. Besides, the “number of endogenous TIA1 and G3BP1 granules greater than 2 μm^2 per 100 μm of neurite” value was “reverses the increase number of these larger granules” in assay [2]; “significantly decreased levels of TIA1 and G3BP1 granules” in assay [2] (listed as 190-208). Besides, the “number of HEK cells with TIA1-GFP granules” value in assay [3] (WT and ALS/FTD mutants, relative to non-treated controls) was “decreased”. Moreover, the “size of TIA1 aggregates” value in assay [3] (WT and mutant TIA1) was “decrease the size of the TIA1 aggregates”.
